In one experiment the target is T1, rabbit E1 (Oryctolagus cuniculus, UniProt Q29504).
T1 construct: purchased Calbiochem 6620700
T1 sequence (Q29504 1-1058): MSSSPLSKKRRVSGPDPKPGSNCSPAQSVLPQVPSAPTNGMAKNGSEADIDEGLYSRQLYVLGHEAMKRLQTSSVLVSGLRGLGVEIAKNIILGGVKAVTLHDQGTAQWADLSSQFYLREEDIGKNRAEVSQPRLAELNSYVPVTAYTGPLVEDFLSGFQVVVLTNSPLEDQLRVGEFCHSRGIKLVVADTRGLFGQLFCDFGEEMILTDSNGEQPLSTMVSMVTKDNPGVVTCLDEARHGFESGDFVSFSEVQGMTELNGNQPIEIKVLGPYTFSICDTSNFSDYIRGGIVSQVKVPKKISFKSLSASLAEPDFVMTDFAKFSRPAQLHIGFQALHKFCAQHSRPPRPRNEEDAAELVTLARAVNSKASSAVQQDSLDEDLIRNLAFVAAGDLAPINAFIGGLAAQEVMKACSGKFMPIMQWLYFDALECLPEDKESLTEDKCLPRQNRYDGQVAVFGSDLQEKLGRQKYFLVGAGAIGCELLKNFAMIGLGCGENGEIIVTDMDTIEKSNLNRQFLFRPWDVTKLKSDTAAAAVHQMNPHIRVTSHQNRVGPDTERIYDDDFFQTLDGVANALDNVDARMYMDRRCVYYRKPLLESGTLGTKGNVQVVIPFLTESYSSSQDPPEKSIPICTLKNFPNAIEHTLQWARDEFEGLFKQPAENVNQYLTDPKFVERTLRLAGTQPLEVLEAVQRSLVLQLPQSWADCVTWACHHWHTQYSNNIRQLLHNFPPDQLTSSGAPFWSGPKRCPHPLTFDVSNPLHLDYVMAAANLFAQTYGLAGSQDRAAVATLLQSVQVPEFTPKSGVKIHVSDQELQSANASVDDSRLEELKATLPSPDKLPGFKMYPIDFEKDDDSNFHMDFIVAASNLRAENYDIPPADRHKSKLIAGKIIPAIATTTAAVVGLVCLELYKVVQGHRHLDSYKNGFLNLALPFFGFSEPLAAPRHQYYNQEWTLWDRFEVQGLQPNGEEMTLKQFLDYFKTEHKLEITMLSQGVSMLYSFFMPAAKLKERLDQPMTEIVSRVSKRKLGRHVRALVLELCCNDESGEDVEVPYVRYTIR
Put plainly: E1 only assay (thiol-ester linkage of ubiquitin with E1). It is filed as biochemical. To be noted: FIG. 2D. The method, then: 2 μl rabbit E1 +12 μl of 1× reaction buffer are mixed together with the test compound followed by addition of 1 μl of ^32P Ub is added for 10 minutes at room temperature followed by resolution by SDS-PAGE under non-reducing conditions to maintain thiol-ester linkages and exposure as above.

The next experiment concerns the target T2, Nedd4 (Homo sapiens, UniProt P46934).
T2 construct: made in house
T2 sequence (P46934 1-1319): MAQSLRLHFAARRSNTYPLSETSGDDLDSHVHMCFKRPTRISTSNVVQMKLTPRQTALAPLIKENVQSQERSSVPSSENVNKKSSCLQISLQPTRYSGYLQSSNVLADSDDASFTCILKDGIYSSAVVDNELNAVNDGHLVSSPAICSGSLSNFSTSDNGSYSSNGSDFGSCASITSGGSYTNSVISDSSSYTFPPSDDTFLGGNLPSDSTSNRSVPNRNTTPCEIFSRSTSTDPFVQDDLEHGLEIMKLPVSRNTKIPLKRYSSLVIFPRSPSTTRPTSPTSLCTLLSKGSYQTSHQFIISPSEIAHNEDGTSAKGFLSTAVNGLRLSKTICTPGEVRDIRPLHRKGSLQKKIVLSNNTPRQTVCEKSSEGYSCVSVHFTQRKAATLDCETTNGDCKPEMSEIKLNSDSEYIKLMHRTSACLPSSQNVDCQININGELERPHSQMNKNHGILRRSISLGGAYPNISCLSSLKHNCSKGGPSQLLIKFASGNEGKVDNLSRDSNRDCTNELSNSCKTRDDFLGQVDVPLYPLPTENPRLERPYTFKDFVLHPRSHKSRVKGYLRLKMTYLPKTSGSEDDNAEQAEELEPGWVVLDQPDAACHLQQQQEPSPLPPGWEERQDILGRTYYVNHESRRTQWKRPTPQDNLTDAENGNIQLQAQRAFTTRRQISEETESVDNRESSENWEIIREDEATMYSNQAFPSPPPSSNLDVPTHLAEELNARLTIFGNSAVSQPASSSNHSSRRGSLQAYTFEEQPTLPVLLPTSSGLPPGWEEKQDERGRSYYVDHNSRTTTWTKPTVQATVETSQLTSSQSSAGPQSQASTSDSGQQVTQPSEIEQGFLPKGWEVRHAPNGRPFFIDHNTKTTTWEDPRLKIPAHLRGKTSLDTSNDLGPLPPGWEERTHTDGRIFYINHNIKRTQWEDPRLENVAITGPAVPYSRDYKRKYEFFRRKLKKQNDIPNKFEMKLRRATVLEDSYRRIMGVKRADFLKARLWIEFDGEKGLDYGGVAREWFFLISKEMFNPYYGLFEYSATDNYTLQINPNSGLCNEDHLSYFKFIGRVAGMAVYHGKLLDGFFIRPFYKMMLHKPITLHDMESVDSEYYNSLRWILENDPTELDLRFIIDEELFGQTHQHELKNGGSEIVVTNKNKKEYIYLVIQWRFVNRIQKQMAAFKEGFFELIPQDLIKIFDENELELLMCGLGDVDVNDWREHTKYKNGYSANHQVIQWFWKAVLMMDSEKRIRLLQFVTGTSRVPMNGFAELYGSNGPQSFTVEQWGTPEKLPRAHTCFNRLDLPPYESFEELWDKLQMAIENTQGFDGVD
The experiment in a line: In vitro ubiquitination assay (E1+E2+E3) with unrelated E3 ligase. It is filed as biochemical. As to conditions: gel assay, FIG. 2B, 2C. On the procedure:
(§1) 1 pmole per experimental point of bacterially expressed GST-MDM2 (or GST-Nedd) was coupled to glutathione Sepharose (GS) for 30 minutes at room temperature with tumbling, followed by 3× wash with 50 mM Tris pH 7.5. Following this, 20 μl of 1× buffer was added (40 μl 10× reaction buffer*, 40 μl 10× PCK**, 320 μl dH2O). The test compound in DMSO is then added to the desired concentration with an equal volume of DMSO used as a control. Samples are incubated with shaking for 1 hr at 23° C. To carry out the reaction, a pre-made cocktail of Rabbit E1 (Calbiochem #6620700)/UbcH5B/^32P Ub cocktail (1 μl/0.5 μl/1 μl) is added followed by 15 minutes shaking at 30° C. The reaction is terminated by addition of 8 μl 4× reducing SDS-PAGE loading buffer. After dissociating proteins from the beads at 100° C. for 2 minutes, samples are resolved on 6% PAGE followed by exposure of the dried gel to phosphor screen. Note: ^32P Ub is derived from GST-Ub that has been engineered to include a PKA phosphorylation site. This fusion protein is purified on glutathione Sepharose, phosphorylated, following this, the ^32P Ub ubiquitin is cleaved and purified away from the thrombin.

For experiment [1], the target named is T3, p53 pre-bound to GST-MDM2 (Homo sapiens, UniProt Q00987).
T3 construct: made in house; host or cells: GST-MDM2: bacteria; p53: SaOS-p53 inducible cells
T3 sequence (Q00987 whole entry): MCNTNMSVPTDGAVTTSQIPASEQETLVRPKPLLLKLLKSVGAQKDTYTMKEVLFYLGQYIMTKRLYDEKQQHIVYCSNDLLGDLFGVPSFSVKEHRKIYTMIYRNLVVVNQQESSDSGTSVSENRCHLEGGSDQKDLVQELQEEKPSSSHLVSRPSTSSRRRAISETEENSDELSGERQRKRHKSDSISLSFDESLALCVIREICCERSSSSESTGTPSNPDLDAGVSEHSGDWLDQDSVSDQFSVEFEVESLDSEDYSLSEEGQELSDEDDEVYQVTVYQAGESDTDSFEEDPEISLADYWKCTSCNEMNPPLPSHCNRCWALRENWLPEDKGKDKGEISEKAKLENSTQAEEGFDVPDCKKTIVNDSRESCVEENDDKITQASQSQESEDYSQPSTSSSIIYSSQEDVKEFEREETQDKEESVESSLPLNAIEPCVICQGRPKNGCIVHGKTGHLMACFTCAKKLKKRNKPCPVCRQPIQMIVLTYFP
T3 sequence (P04637 whole entry partner): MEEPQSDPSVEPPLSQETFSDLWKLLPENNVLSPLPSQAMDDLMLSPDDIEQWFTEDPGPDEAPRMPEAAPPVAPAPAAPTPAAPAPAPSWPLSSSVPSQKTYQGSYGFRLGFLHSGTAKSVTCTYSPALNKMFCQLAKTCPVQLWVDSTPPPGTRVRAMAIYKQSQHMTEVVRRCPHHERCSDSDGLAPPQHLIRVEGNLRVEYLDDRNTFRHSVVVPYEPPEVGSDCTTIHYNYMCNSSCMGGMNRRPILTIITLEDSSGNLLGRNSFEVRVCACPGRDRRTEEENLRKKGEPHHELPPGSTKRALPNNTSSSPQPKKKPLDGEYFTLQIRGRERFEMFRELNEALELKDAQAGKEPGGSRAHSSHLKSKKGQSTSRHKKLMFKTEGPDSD
Put plainly: In vitro p53 ubiquitination assay. It counts as biochemical. To be noted: cellular p53 pre-bound to GST-MDM2, FIG. 2G. On the procedure:
d. In Vitro R53 Ubiguitination Assay
p53 protein from SaOS-p53 inducible cell lysate was purified from cells using GST-MDM2 (5 pmol) pre-bound to GS beads. Samples were then incubated with test compounds as above. Subsequently 2 μl rabbit E1, 1 μl UbcH5b, and 10 μg of ubiquitin were added. After reaction for 15 min at 23° C., samples were subject to SDS-PAGE under reducing conditions, transferred to nitrocellulose membranes and immunoblotted with anti-p53 (DO-1) followed by ECL using standard techniques.

In experiment [2] the test system is Normal human fibroblast MRC-5. The experiment in a line: Cell based assay for accumulation of MDM2 and p53 (immunoblot). To be noted: MRC-5 cells, 50 μM, 8 hours. The method, then:
Methods: Normal human fibroblast MRC-5 were chosen to determine whether the compounds from the high throughput screening can inhibit the E3 activity of Mdm2, i.e. stabilizing MDM2 and p53 in vivo. After being seeded in 12-well tissue culture cluster overnight, the cells were treated with 50 μM of the compounds for 8 hours. They were harvested with trypsin-EDTA, washed with PBS, and lysed with RIPA buffer. Following removal of insoluble pellet by centrifugation for 20 minutes at 10000 rpm, the lysate was separated on 4-20% gradient SDS-polyacrylamide gel and transferred onto nitrocellulose membrane. The membrane was then blotted with anti-p53 antibody (DO-1), anti-MDM2 antibodies (Ab-1 and Ab-2), anti-p27 (Santa Cruz), anti-Nedd4, and anti-p21Waf1 antibody. After extensive washing with PBS containing 0.5% Triton X-100, it was incubated with HRP-labeled donkey anti-mouse antibody and visualized using enhanced chemiluminescence.

The target in a further experiment is T4, GST-MDM2 (Homo sapiens, UniProt Q00987).
T4 construct: made in house
T4 sequence (Q00987 whole entry): as the sequence (Q00987 whole entry) above
The experiment in a line: Standard MDM2 in vitro ubiquitination assay (E1+E2+E3), SDS-PAGE gel. It is filed as biochemical. To be noted: FIG. 2A, 2F. The method, then:
a. “Standard MDM2 in vitro Ubiguitination Assay” (E1+E2+E3 Assay)
as §1, with “To carry out the reaction, a pre-made cocktail of Rabbit E1 (Calbiochem #6620700)/UbcH5B/^32P Ub cocktail (1 μl/0.5 μl/1 μl) is added followed by 15 minutes shaking at 30° C.” left out
• 500 mM Tris (pH 7.5) • 2 mM ATP • 5 mM MgCl2 • 1 mM DTT • 10 mM creatine phosphate (Sigma P4635) (45 mg/10 ml). **10× PCK • Sigma C7886, 1000 U, reconstitute in 200 μl 10 mM Tris pH 8.0.

On to `O=c1nc2n(-c3ccc(Cl)cc3)c3ccc([N+](=O)[O-])cc3cc-2c(=O)[nH]1` [Compound 97H10, 10-(4-chloro-phenyl)-7-nitro-10H-pyrimido[4,5-b]quinoline-2,4-dione], for which the “inhibition of thiol-ester linkage of ubiquitin with E1” value against rabbit E1 is “block the activity of the E1 enzyme”. The “selectivity of inhibition of MDM2 versus unrelated E3 ligase Nedd4” value at Nedd4 is reported as “inhibits all E3s”.

Consider `O=c1nc2n(-c3ccc(Cl)cc3)c3ccc([N+](=O)[O-])cc3cc-2c(=O)[nH]1` [Compound 98D07, 10-(-4-chloro-phenyl)-7-nitro-10H-pyrimido[4,5-b]quinoline-2,4-dione], for which, in experiment [1], the “inhibition of p53 ubiquitination by MDM2” value is reported as “significant dose-dependent inhibition of p53 ubiquitination”. In addition, in experiment [2], the MDM2 level result is “specifically increase MDM2 and p53”; the p53 level entry was “specifically increase MDM2 and p53”. Moreover, at GST-MDM2, the “inhibition of MDM2 E3 ligase (auto-ubiquitination)” value was “inhibition of MDM2 auto-ubiquitination”.

With `Cc1ccc(-n2c3nc(=O)[nH]c(=O)c-3cc3cc([N+](=O)[O-])ccc32)cc1` [Compound 98E07, 10-(-4-methyl-phenyl)-7-nitro-10H-pyrimido[4,5-b]quinoline-2,4-dione], in experiment [2], the MDM2 level result was “specifically increase MDM2 and p53”; the p53 level entry is “specifically increase MDM2 and p53”. At GST-MDM2, the “inhibition of MDM2 E3 ligase (auto-ubiquitination)” value is “inhibition of MDM2 auto-ubiquitination”.

The values are drawn from US7498336B2, “Deazaflavin compounds and methods of use thereof” (The United States of America as represented by the …, priority 2003, dated 2009).
